Assay results as given in PubChem BioAssay (NCI).
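Exposure lasted 48 hours, with cells grown in 96-well plates and compounds tested at five concentrations. TGI: concentration producing complete growth inhibition.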

Columns and labels:
Assay in all cases: growth of human tumour cells (NCI), 48 h
HS 578T breast = test system: HS 578T breast
SK-MEL-2 melanoma = test system: SK-MEL-2 melanoma
IGROV1 ovarian = test system: IGROV1 ovarian
T-47D breast = test system: T-47D breast
SNB-75 CNS = test system: SNB-75 CNS
NCI-H460 lung = test system: NCI-H460 lung
TK-10 renal = test system: TK-10 renal
RXF 393 renal = test system: RXF 393 renal
MDA-N = test system: MDA-N
OVCAR-4 ovarian = test system: OVCAR-4 ovarian
CAKI-1 renal = test system: CAKI-1 renal

`CCOC(=O)c1cccc(N=Nc2nc[nH]c2/C=C/C(=O)OC)c1` showed a TGI (HS 578T breast) of over 100 µM, a TGI (SK-MEL-2 melanoma) of 63.5 µM and a TGI (IGROV1 ovarian) of over 100 µM. For the same molecule, the TGI (T-47D breast) was over 100 µM, the TGI (SNB-75 CNS) was 58.7 µM and the TGI (NCI-H460 lung) was 53 µM. The TGI (TK-10 renal) was over 100 µM, the TGI (RXF 393 renal) was over 100 µM and the TGI (MDA-N) was over 100 µM. It also gave a TGI (OVCAR-4 ovarian) of over 100 µM and a TGI (CAKI-1 renal) of over 100 µM.

`C/C(=N\N=C1/C(=O)OC(c2ccccc2)=C1C(=O)c1ccccc1)c1ccc([N+](=O)[O-])cc1` was tested, and the TGI (HS 578T breast) was over 100 µM, the TGI (SK-MEL-2 melanoma) was over 100 µM and the TGI (IGROV1 ovarian) was over 100 µM. For the same molecule, the TGI (T-47D breast) was over 100 µM, the TGI (NCI-H460 lung) was over 100 µM and the TGI (TK-10 renal) was over 100 µM. The TGI (RXF 393 renal) was over 100 µM, the TGI (MDA-N) was over 100 µM and the TGI (OVCAR-4 ovarian) was over 100 µM. It also gave a TGI (CAKI-1 renal) of over 100 µM.

`O=[N+]([O-])C(=C(Nc1cccc2cccnc12)Nc1cccc2cccnc12)C(Cl)=C(Cl)Cl` gave a TGI (HS 578T breast) of over 100 µM, a TGI (SK-MEL-2 melanoma) of over 54 µM and a TGI (IGROV1 ovarian) of over 100 µM. For the same molecule, the TGI (T-47D breast) was over 100 µM, the TGI (SNB-75 CNS) was over 100 µM and the TGI (NCI-H460 lung) was over 100 µM. It also gave a TGI (TK-10 renal) of over 100 µM, a TGI (RXF 393 renal) of over 100 µM and a TGI (MDA-N) of over 69.7 µM. It also gave a TGI (OVCAR-4 ovarian) of over 96.1 µM and a TGI (CAKI-1 renal) of over 92.2 µM.

`COC1=CC(=O)c2c(c(-c3nc(C)cs3)cn2C)C1=O` was tested, and the TGI (HS 578T breast) was 8.48 µM, the TGI (SK-MEL-2 melanoma) was 10.8 µM and the TGI (IGROV1 ovarian) was 20.5 µM. For the same molecule, the TGI (T-47D breast) was 53.4 µM, the TGI (SNB-75 CNS) was 5.42 µM and the TGI (NCI-H460 lung) was 3.82 µM. For the same molecule, the TGI (TK-10 renal) was over 100 µM, the TGI (RXF 393 renal) was 77.8 µM and the TGI (MDA-N) was 2.7 µM. It also gave a TGI (OVCAR-4 ovarian) of 68.7 µM and a TGI (CAKI-1 renal) of 21.3 µM.

For `Cc1cccc(C)c1NC(=O)C(Cc1c[nH]c2ccccc12)NC(=O)OCc1ccccc1` (stereo not drawn), the TGI (HS 578T breast) was over 100 µM, the TGI (SK-MEL-2 melanoma) was 34.4 µM and the TGI (IGROV1 ovarian) was 73 µM. The TGI (T-47D breast) was 61.2 µM, the TGI (SNB-75 CNS) was 48.2 µM and the TGI (NCI-H460 lung) was 43.6 µM. For the same molecule, the TGI (TK-10 renal) was 43.7 µM, the TGI (RXF 393 renal) was 36.4 µM and the TGI (MDA-N) was 54.6 µM. For the same molecule, the TGI (OVCAR-4 ovarian) was 37.1 µM and the TGI (CAKI-1 renal) was 50.2 µM.

For `CCNC(=S)NNC(=O)C12CC3CC(CC(C3)C1)C2`, the TGI (HS 578T breast) was over 100 µM, the TGI (SK-MEL-2 melanoma) was over 100 µM and the TGI (IGROV1 ovarian) was over 100 µM. The TGI (T-47D breast) was over 100 µM, the TGI (SNB-75 CNS) was over 100 µM and the TGI (NCI-H460 lung) was over 100 µM. The TGI (TK-10 renal) was over 100 µM, the TGI (RXF 393 renal) was over 100 µM and the TGI (MDA-N) was over 100 µM. For the same molecule, the TGI (OVCAR-4 ovarian) was over 100 µM and the TGI (CAKI-1 renal) was over 100 µM.

Work on `COc1ccc(N2C(=O)CC(=O)N(NC(=O)C(C)Oc3ccccc3C)C2=S)cc1` (stereo not drawn) yielded a TGI (HS 578T breast) of over 100 µM, a TGI (SK-MEL-2 melanoma) of over 100 µM and a TGI (IGROV1 ovarian) of over 100 µM. The TGI (T-47D breast) was over 100 µM, the TGI (SNB-75 CNS) was over 100 µM and the TGI (NCI-H460 lung) was over 100 µM. The TGI (TK-10 renal) was over 100 µM, the TGI (RXF 393 renal) was over 100 µM and the TGI (MDA-N) was over 100 µM. It also gave a TGI (OVCAR-4 ovarian) of over 100 µM and a TGI (CAKI-1 renal) of over 100 µM.

In the case of `NCCCN1c2ccccc2Sc2ccc(Cl)cc21`, the TGI (HS 578T breast) is reported as over 10 µM, the TGI (SK-MEL-2 melanoma) is reported as over 10 µM and the TGI (IGROV1 ovarian) is reported as over 10 µM. For the same molecule, the TGI (T-47D breast) was over 9.08 µM, the TGI (SNB-75 CNS) was over 10 µM and the TGI (NCI-H460 lung) was over 7.31 µM. The TGI (TK-10 renal) was over 10 µM, the TGI (RXF 393 renal) was over 10 µM and the TGI (MDA-N) was over 5.98 µM. It also gave a TGI (OVCAR-4 ovarian) of over 10 µM and a TGI (CAKI-1 renal) of over 10 µM.

In the case of `CCOS(C)(=O)=O`, the TGI (HS 578T breast) is reported as over 100 µM, the TGI (SK-MEL-2 melanoma) is reported as over 100 µM and the TGI (IGROV1 ovarian) is reported as over 100 µM. For the same molecule, the TGI (T-47D breast) was over 100 µM, the TGI (NCI-H460 lung) was over 100 µM and the TGI (TK-10 renal) was over 100 µM. For the same molecule, the TGI (RXF 393 renal) was over 100 µM, the TGI (MDA-N) was over 100 µM and the TGI (OVCAR-4 ovarian) was over 100 µM. For the same molecule, the TGI (CAKI-1 renal) was over 100 µM.

With `O=C1NC2c3c(I)sc(I)c3C(O)C2O1` (stereo not drawn) the TGI (HS 578T breast) was over 100 µM, the TGI (SK-MEL-2 melanoma) was over 100 µM and the TGI (IGROV1 ovarian) was over 100 µM. It also gave a TGI (T-47D breast) of over 100 µM, a TGI (SNB-75 CNS) of over 100 µM and a TGI (NCI-H460 lung) of over 100 µM. It also gave a TGI (TK-10 renal) of over 100 µM, a TGI (RXF 393 renal) of over 100 µM and a TGI (MDA-N) of over 100 µM. For the same molecule, the TGI (OVCAR-4 ovarian) was over 100 µM and the TGI (CAKI-1 renal) was over 100 µM.
